How the values were obtained:
morningglory [1] = experiment: Test C preemergence/postemergence greenhouse plant response rating 0 to 100; type: in vivo, Ipomoea hederacea; settings: for Plant response rating, Morningglory: 125 g/ha, 0 to 100 scale
How it was run: (§1)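 Compounds in non-phytotoxic solvent applied preemergence to sandy loam one day after planting, postemergence at the 1–4 leaf stage, or to ~2.5 cm floodwater over silt loam.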

lambsquarters = experiment: as above; type: in vivo, Chenopodium album; settings: for Plant response rating Lambsquarters: 125 g/ha, 0 to 100 scale
How it was run: as §1

giant foxtail = experiment: Test B preemergence/postemergence greenhouse plant response rating 0 to 10; type: in vivo, Setaria faberii; settings: for Plant response rating, Giant foxtail: 0 to 10 scale
How it was run: (§2)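 Both application timings were run together: seeds got compound preemergence, and established seedlings (two to eighteen cm) got it postemergence. Non-phytotoxic solvent carried the chemical. Ratings are visual, versus controls, at twelve to sixteen days.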

chickweed = experiment: as above; type: in vivo, Stellaria media; settings: for Plant response rating, Chickweed: 0 to 10 scale
How it was run: as §2

rape = experiment: as above; type: in vivo, Brassica napus; settings: for Plant response rating, Rape: 0 to 10 scale
How it was run: as §2

morningglory [2] = experiment: as above; type: in vivo, Ipomoea hederacea; settings: for Plant response rating, Morningglory: 0 to 10 scale
How it was run: as §2

corn = experiment: as above; type: in vivo, Zea mays; settings: for Plant response rating, Corn: 0 to 10 scale
How it was run: as §2

crabgrass = experiment: as above; type: in vivo, Digitaria spp.; settings: for Plant response rating, Crabgrass: 0 to 10 scale
How it was run: as §2

cheatgrass = experiment: as above; type: in vivo, Bromus secalinus; settings: for Plant response rating, Cheatgrass: 0 to 10 scale
How it was run: as §2

soybean = experiment: Test C preemergence/postemergence greenhouse plant response rating 0 to 100; type: in vivo, Glycine max; settings: for Plant response rating, Soybean: 125 g/ha, 0 to 100 scale
How it was run: as §1

barley = experiment: as above; type: in vivo, Hordeum vulgare; settings: for Plant response rating Barley Igri: 125 g/ha, 0 to 100 scale
How it was run: as §1

barnyardgrass = experiment: Test B preemergence/postemergence greenhouse plant response rating 0 to 10; type: in vivo, Echinochloa crus-galli; settings: for Plant response rating, Barnyardgrass: 0 to 10 scale
How it was run: as §2

velvetleaf = experiment: as above; type: in vivo, Abutilon theophrasti; settings: for Plant response rating, Velvetleaf: 0 to 10 scale
How it was run: as §2

With `COCOc1cc(-c2nn3c(c2Cl)CCCC3)c(F)cc1Cl` [Compound 58] the “Plant response rating, Morningglory” value (morningglory [1]; POSTEMERGENCE) was 100, the “Plant response rating (0 to 100), Morningglory” value (morningglory [1]; POSTEMERGENCE, Rate 2 g/ha) was 50 and the “Plant response rating, Morningglory” value (morningglory [1]; PREEMERGENCE) was 30. The “Plant response rating (0 to 100), Morningglory” value (morningglory [1]; PREEMERGENCE, Rate 2 g/ha) was 0, the “Plant response rating (0 to 100), Morningglory” value (morningglory [1]; Rate 8 g/ha, POSTEMERGENCE) was 70 and the “Plant response rating (0 to 100), Morningglory” value (morningglory [1]; Rate 8 g/ha, PREEMERGENCE) was 0. The “Plant response rating (0 to 100), Morningglory” value (morningglory [1]; Rate 31 g/ha, POSTEMERGENCE) was 90, the “Plant response rating (0 to 100), Morningglory” value (morningglory [1]; Rate 31 g/ha, PREEMERGENCE) was 0 and the “Plant response rating Lambsquarters” value (lambsquarters; POSTEMERGENCE) was 100. For the same compound, the “Plant response rating (0 to 100), Lambsquarters” value (lambsquarters; POSTEMERGENCE, Rate 2 g/ha) was 50, the “Plant response rating Lambsquarters” value (lambsquarters; PREEMERGENCE) was 100 and the “Plant response rating (0 to 100), Lambsquarters” value (lambsquarters; PREEMERGENCE, Rate 2 g/ha) was 0. For the same compound, the “Plant response rating (0 to 100), Lambsquarters” value (lambsquarters; Rate 8 g/ha, POSTEMERGENCE) was 85, the “Plant response rating (0 to 100), Lambsquarters” value (lambsquarters; Rate 8 g/ha, PREEMERGENCE) was 100 and the “Plant response rating (0 to 100), Lambsquarters” value (lambsquarters; Rate 31 g/ha, POSTEMERGENCE) was 100. The “Plant response rating (0 to 100), Lambsquarters” value (lambsquarters; Rate 31 g/ha, PREEMERGENCE) was 100, the “Plant response rating, Giant foxtail” value (giant foxtail; POSTEMERGENCE, Rate 50 g/ha) was 6 and the “Plant response rating, Giant foxtail” value (giant foxtail; PREEMERGENCE, Rate 50 g/ha) was 9. The “Plant response rating (0 to 10 scale), Giant foxtail” value (giant foxtail; PREEMERGENCE, Rate 200 g/ha) was 10, the “Plant response rating, Giant foxtail” value (giant foxtail; Rate 200 g/ha, POSTEMERGENCE) was 6 and the “Plant response rating, Chickweed” value (chickweed; POSTEMERGENCE, Rate 50 g/ha) was 9. For the same compound, the “Plant response rating, Chickweed” value (chickweed; PREEMERGENCE, Rate 50 g/ha) was 10, the “Plant response rating (0 to 10 scale), Chickweed” value (chickweed; PREEMERGENCE, Rate 200 g/ha) was 10 and the “Plant response rating, Chickweed” value (chickweed; Rate 200 g/ha, POSTEMERGENCE) was 10. For the same compound, the “Plant response rating, Rape” value (rape; POSTEMERGENCE, Rate 50 g/ha) was 9, the “Plant response rating, Rape” value (rape; PREEMERGENCE, Rate 50 g/ha) was 5 and the “Plant response rating (0 to 10 scale), Rape” value (rape; PREEMERGENCE, Rate 200 g/ha) was 5. For the same compound, the “Plant response rating, Rape” value (rape; Rate 200 g/ha, POSTEMERGENCE) was 10, the “Plant response rating, Morningglory” value (morningglory [2]; POSTEMERGENCE, Rate 50 g/ha) was 9 and the “Plant response rating, Morningglory” value (morningglory [2]; PREEMERGENCE, Rate 50 g/ha) was 4. The “Plant response rating (0 to 10 scale), Morningglory” value (morningglory [2]; PREEMERGENCE, Rate 200 g/ha) was 4, the “Plant response rating, Morningglory” value (morningglory [2]; Rate 200 g/ha, POSTEMERGENCE) was 10 and the “Plant response rating, Corn” value (corn; POSTEMERGENCE, Rate 50 g/ha) was 5. For the same compound, the “Plant response rating, Corn” value (corn; PREEMERGENCE, Rate 50 g/ha) was 2, the “Plant response rating (0 to 10 scale), Corn” value (corn; PREEMERGENCE, Rate 200 g/ha) was 4 and the “Plant response rating, Corn” value (corn; Rate 200 g/ha, POSTEMERGENCE) was 6. For the same compound, the “Plant response rating, Crabgrass” value (crabgrass; POSTEMERGENCE, Rate 50 g/ha) was 3, the “Plant response rating, Crabgrass” value (crabgrass; PREEMERGENCE, Rate 50 g/ha) was 0 and the “Plant response rating (0 to 10 scale), Crabgrass” value (crabgrass; PREEMERGENCE, Rate 200 g/ha) was 9. The “Plant response rating, Crabgrass” value (crabgrass; Rate 200 g/ha, POSTEMERGENCE) was 3, the “Plant response rating, Cheatgrass” value (cheatgrass; POSTEMERGENCE, Rate 50 g/ha) was 7 and the “Plant response rating, Cheatgrass” value (cheatgrass; PREEMERGENCE, Rate 50 g/ha) was 4. The “Plant response rating (0 to 10 scale), Cheatgrass” value (cheatgrass; PREEMERGENCE, Rate 200 g/ha) was 8, the “Plant response rating, Cheatgrass” value (cheatgrass; Rate 200 g/ha, POSTEMERGENCE) was 10 and the “Plant response rating, Soybean” value (soybean; POSTEMERGENCE) was 85. The “Plant response rating (0 to 100), Soybean” value (soybean; POSTEMERGENCE, Rate 2 g/ha) was 50, the “Plant response rating, Soybean” value (soybean; PREEMERGENCE) was 0 and the “Plant response rating (0 to 100), Soybean” value (soybean; PREEMERGENCE, Rate 2 g/ha) was 0. The “Plant response rating (0 to 100), Soybean” value (soybean; Rate 8 g/ha, POSTEMERGENCE) was 50, the “Plant response rating (0 to 100), Soybean” value (soybean; Rate 8 g/ha, PREEMERGENCE) was 0 and the “Plant response rating (0 to 100), Soybean” value (soybean; Rate 31 g/ha, POSTEMERGENCE) was 70. The “Plant response rating (0 to 100), Soybean” value (soybean; Rate 31 g/ha, PREEMERGENCE) was 0, the “Plant response rating Barley Igri” value (barley; POSTEMERGENCE) was 60 and the “Plant response rating (0 to 100), Barley Igri” value (barley; POSTEMERGENCE, Rate 2 g/ha) was 30. The “Plant response rating Barley Igri” value (barley; PREEMERGENCE) was 30, the “Plant response rating (0 to 100), Barley Igri” value (barley; PREEMERGENCE, Rate 2 g/ha) was 0 and the “Plant response rating (0 to 100), Barley Igri” value (barley; Rate 8 g/ha, POSTEMERGENCE) was 40. The “Plant response rating (0 to 100), Barley Igri” value (barley; Rate 8 g/ha, PREEMERGENCE) was 0, the “Plant response rating (0 to 100), Barley Igri” value (barley; Rate 31 g/ha, POSTEMERGENCE) was 50 and the “Plant response rating (0 to 100), Barley Igri” value (barley; Rate 31 g/ha, PREEMERGENCE) was 0. The “Plant response rating, Barnyardgrass” value (barnyardgrass; POSTEMERGENCE, Rate 50 g/ha) was 6, the “Plant response rating, Barnyardgrass” value (barnyardgrass; PREEMERGENCE, Rate 50 g/ha) was 4 and the “Plant response rating (0 to 10 scale), Barnyardgrass” value (barnyardgrass; PREEMERGENCE, Rate 200 g/ha) was 7. The “Plant response rating, Barnyardgrass” value (barnyardgrass; Rate 200 g/ha, POSTEMERGENCE) was 9, the “Plant response rating, Velvetleaf” value (velvetleaf; POSTEMERGENCE, Rate 50 g/ha) was 9 and the “Plant response rating, Velvetleaf” value (velvetleaf; PREEMERGENCE, Rate 50 g/ha) was 10. For the same compound, the “Plant response rating (0 to 10 scale), Velvetleaf” value (velvetleaf; PREEMERGENCE, Rate 200 g/ha) was 10 and the “Plant response rating, Velvetleaf” value (velvetleaf; Rate 200 g/ha, POSTEMERGENCE) was 10.

From patent US6358885B1, “Substituted phenylheterocyclic herbicides” (Mississippi State University, priority 1992, dated 2002)
